From patent publication US8129355B2, “Ketone ligands for modulating the expression of exogenous genes via an ecdysone receptor complex” (priority 2002, dated 2012)
Like-named read-outs stand apart in the source and are kept apart here.

Experiments:
[1] = molecular target: T1, GAL4 DBD (1-147)-CfEcR(DEF)/VP16AD-βRXREF-LmUSPEF (Choristoneura fumiferana, UniProt O77240); experiment: 27-63 assay: luciferase reporter gene expression in stable CHO cell clone 27-63; details: for 27-63 Rel Max FI: maximum fold induction at any concentration relative to that of GS-E ligand; for CC50: read-out: 27-63 LC50, average, dose response, three-parameter logistic model; for Fold Induction Average, 27-63 Assay (33 μM): single dose 33 μM, RLU ligand treated / RLU DMSO treated cells
T1 sequence (O77240 191-513): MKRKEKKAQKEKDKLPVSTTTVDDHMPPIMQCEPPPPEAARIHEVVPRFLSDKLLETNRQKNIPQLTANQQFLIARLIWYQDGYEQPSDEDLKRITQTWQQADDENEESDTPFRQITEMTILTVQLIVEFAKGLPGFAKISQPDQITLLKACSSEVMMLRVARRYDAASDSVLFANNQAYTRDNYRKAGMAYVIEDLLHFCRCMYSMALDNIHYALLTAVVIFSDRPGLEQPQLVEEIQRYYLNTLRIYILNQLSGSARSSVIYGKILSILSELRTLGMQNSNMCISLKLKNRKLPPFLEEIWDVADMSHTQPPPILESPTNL
T1 sequence (P28702 296-455 partner limits assumed): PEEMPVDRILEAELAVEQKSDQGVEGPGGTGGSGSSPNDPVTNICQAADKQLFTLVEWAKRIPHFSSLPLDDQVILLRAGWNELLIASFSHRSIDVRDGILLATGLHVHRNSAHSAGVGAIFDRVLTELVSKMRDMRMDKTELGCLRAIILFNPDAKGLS
How it was run: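 CHO clone stably expressing GAL4 DBD-CfEcR(DEF) and VP16AD-HsRXRβ/LmUSP EF chimera plus a 5XGAL4RE-luciferase reporter; ligands given at 8 concentrations (33 μM to 0.01 μM), luminescence read 48 h after treatment. Fold induction versus DMSO cells; BC50 from three-parameter logistic fit.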

[2] = molecular target: T2, GAL4 DBD-CfEcR(DEF)/VP16AD-MmRXRE (Choristoneura fumiferana, UniProt O77240); experiment: cell-based; details: for fold induction at 33 µM: CHO, read-out: Fold Induction Average, 13B3 Assay (33 μM); for 13B3 Rel Max FI: maximum fold induction at any concentration relative to that of GS-E ligand
T2 sequence (O77240 1-513): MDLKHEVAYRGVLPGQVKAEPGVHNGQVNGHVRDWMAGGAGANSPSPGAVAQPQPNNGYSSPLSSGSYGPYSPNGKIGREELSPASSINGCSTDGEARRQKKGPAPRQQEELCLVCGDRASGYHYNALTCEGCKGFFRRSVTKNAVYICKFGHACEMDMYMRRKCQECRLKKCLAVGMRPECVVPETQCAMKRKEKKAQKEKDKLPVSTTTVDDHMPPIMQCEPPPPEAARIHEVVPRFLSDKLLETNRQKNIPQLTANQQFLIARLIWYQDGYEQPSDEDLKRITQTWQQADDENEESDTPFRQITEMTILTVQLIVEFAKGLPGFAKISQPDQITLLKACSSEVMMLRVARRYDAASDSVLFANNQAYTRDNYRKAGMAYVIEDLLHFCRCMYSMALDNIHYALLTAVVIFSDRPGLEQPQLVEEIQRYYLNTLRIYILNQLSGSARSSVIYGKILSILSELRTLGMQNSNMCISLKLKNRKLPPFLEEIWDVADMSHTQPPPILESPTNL
How it was run: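 Stable CHO clone 13B3 expressing GAL4 DBD-CfEcR(DEF) and VP16AD-mouse RXR(DE) with GAL4 RE-luciferase reporter. Ligands tested at 8 concentrations, 33–0.01 μM; luciferase read 48 h after treatment. Fold induction versus DMSO; BC50 from three-parameter logistic fit.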

SMILES	27-63 Rel Max FI [1]	CC50 [1] [µM]	EC50 [2] [µM]	fold induction at 33 µM [2]	13B3 Rel Max FI [2]	Fold Induction Average, 27-63 Assay (33 μM) [1]	EC50 ([2]; read-out: 13B3 EC50, average, dose response, three-parameter logistic model) [µM]	Fold Induction Average, 13B3 Assay (33 μM) ([2]; single dose 33 μM, RLU ligand treated / RLU DMSO treated cells)	fold induction at 33 µM ([1]; CHO, read-out: Fold Induction Average, 27-63 Assay (33 μM))
COc1cccc(C(=O)NC(C)(C(=O)c2cccc(C)c2)C(C)C)c1C (stereo not shown) [Example 31]	0.61	~15	> 33	1000	0.08	–	–	–	–
COc1cccc(C(=O)C(C)(NC(=O)c2cccc(OC)c2C)C(C)C)c1 (stereo not shown) [Example 32]	0.01	> 33	> 33	96	0.00	–	–	–	–
COc1cc(C(=O)C2(NC(=O)c3cccc(OC)c3C)CCCCC2)cc(OC)c1C [Example 66]	0.76	14.5	23.8	357	0.50	–	–	–	–
CCc1c(C(=O)NC2(C(=O)c3ccccc3)CCCC2)ccc2c1OCCO2 [Example 22]	0.60	10.8	> 33	4	0.00	–	–	–	–
COc1cccc(C(=O)NC2(C(=O)c3cccc(C)c3)CCCCC2)c1C [Example 7]	0.77	3.52	6.73	3100	0.55	–	–	–	–
COc1cccc(C(=O)NC2(C(=O)c3cc(C)cc(C)c3)CC2)c1C [Example 13]	0.09	> 33	> 33	3	0.00	–	–	–	–
COc1cccc(C(=O)C2(NC(=O)c3cccc(OC)c3C)CCCCC2)c1 [Example 4]	1.06	4.28	3.46	45	0.64	–	–	–	–
CCC(CC)(NC(=O)c1cccc(OC)c1C)C(=O)c1ccc(F)cc1 [Example 38]	0.00	> 33	> 33	18	0.00	–	–	–	–
COc1cccc(C(=O)NC(C)(C(=O)c2ccccc2)C(C)C)c1C (stereo not shown) [Example 34]	0.00	> 33	> 33	6	0.00	–	–	–	–
COc1cccc(C(=O)NC2(C(=O)c3ccccc3)CCCC2)c1 [Example 141]	0.00	> 33	–	–	–	–	–	–	–
CCc1c(OC)cccc1C(=O)NC1(C(=O)c2cc(C)cc(C)c2)CCCCC1 [Example 143]	0.91	1.5	–	–	–	–	–	–	–
CCC(CC)(NC(=O)c1cccc(OC)c1C)C(=O)c1ccc(F)c(C)c1 [Example 50]	0.00	> 33	> 33	1	0.00	–	–	–	–
COc1cccc(C(=O)NC2(C(=O)c3ccccc3)CCCCC2)c1C [Example 69]	0.84	14.4	19.4	164	0.19	–	–	–	–
CCC(CC)(NC(=O)c1cccc(OC)c1C)C(=O)c1cccc(OC)c1 [Example 49]	0.00	> 33	> 33	–	0.00	–	–	–	–
COc1cccc(C(=O)NC2(C(=O)c3cc(C)cc(C)c3)CCCC2)c1C [Example 10]	0.86	1.91	3.27	32700	0.71	–	–	–	–
CCC(CC)(NC(=O)c1cccc(OC)c1C)C(=O)c1ccccc1 [Example 78]	0.41	6.54	–	–	–	–	–	–	–
COc1cccc(C(=O)C(C)(CC(C)C)NC(=O)c2cccc(OC)c2C)c1 (stereo not shown) [Example 53]	0.00	> 33	> 33	–	0.00	–	–	–	–
COc1cccc(C(=O)NC2(C(=O)c3cc(C)cc(C)c3)CCCCCC2)c1C [Example 71]	0.88	2.97	–	–	–	–	–	–	–
COc1cccc(C(=O)NC2(C(=O)c3cccc(C)c3)CCOCC2)c1C [Example 25]	0.00	> 33	> 33	117	0.00	–	–	–	–
CCC(CC)(NC(=O)c1cccc(OC)c1C)C(=O)c1cccc(C)c1 [Example 48]	0.11	> 33	≥ 33	12	0.00	–	–	–	–

SMILES	27-63 Rel Max FI [1]	CC50 [1] [µM]	EC50 [2] [µM]	fold induction at 33 µM [2]	13B3 Rel Max FI [2]	Fold Induction Average, 27-63 Assay (33 μM) [1]	EC50 ([2]; read-out: 13B3 EC50, average, dose response, three-parameter logistic model) [µM]	Fold Induction Average, 13B3 Assay (33 μM) ([2]; single dose 33 μM, RLU ligand treated / RLU DMSO treated cells)	fold induction at 33 µM ([1]; CHO, read-out: Fold Induction Average, 27-63 Assay (33 μM))
COc1cccc(C(=O)NC(C)(C(=O)c2cc(C)cc(C)c2)C(C)C)c1C (stereo not shown) [Example 20]	0.71	2.56	4	–	0.92	–	–	–	–
COc1cccc(C(=O)NC(C)(CC(C)C)C(=O)c2cccc(C)c2)c1C (stereo not shown) [Example 52]	0.04	~12	> 33	114	0.00	–	–	–	–
COc1ccccc1C(=O)C1(NC(=O)c2cccc(OC)c2C)CCCCC1 [Example 45]	0.71	1.03	1.35	92900	0.67	–	–	–	–
COc1ccccc1C(=O)C(C)(C)NC(=O)c1cccc(OC)c1C [Example 74]	–	–	–	–	–	9	–	–	–
COc1cccc(C(=O)NC(C)(CC(C)C)C(=O)c2cc(C)cc(C)c2)c1C (stereo not shown) [Example 55]	0.62	3.85	3.42	24700	0.21	–	–	–	–
COc1cccc(C(=O)NC2(C(=O)c3cc(C)cc(C)c3)CCC3(CC2)OCCO3)c1C [Example 29]	0.00	> 33	> 33	5	0.00	–	–	–	–
COc1cc(C(=O)C2(NC(=O)c3cccc(OC)c3C)CCCC2)cc(OC)c1C [Example 65]	0.28	> 20	–	–	0.03	–	~20	19	–
CCCCC(=O)C1(NC(=O)c2cccc(OC)c2C)CCCCC1 [Example 120]	0.65	9.05	14.9	367	0.27	–	–	–	–
CCC(CC)(NC(=O)c1cccc(OC)c1C)C(=O)c1ccc(C)cc1 [Example 77]	0.00	> 33	–	–	–	–	–	–	–
COc1ccccc1C(=O)C1(NC(=O)c2cccc(OC)c2C)CCCCCC1 [Example 70]	0.66	3.36	–	–	–	–	–	–	–
COC(=O)CN1CCCC(NC(=O)c2cccc(OC)c2C)(C(=O)c2cc(C)cc(C)c2)C1 (racemic) [Example 156]	0.00	> 33	–	–	–	3	–	–	–
CCc1c(OC)cccc1C(=O)NC1(C(=O)c2cc(C)cc(C)c2)CCCC1 [Example 144]	0.93	1.52	–	–	–	–	–	–	–
COc1cccc(C(=O)NC2(C(=O)c3cc(C)cc(C)c3)CCN(C(C)=O)CC2)c1C [Example 149]	–	–	–	–	–	–	–	–	1
COc1cccc(C(=O)NC(C)(C)C(=O)c2ccccc2)c1C [Example 76]	0.00	> 33	–	–	–	–	–	–	–
CCNC(=O)N1CCC(NC(=O)c2cccc(OC)c2C)(C(=O)c2cc(C)cc(C)c2)CC1 [Example 157]	–	–	–	–	–	1	–	–	–
COc1cccc(C(=O)NC2(C(=O)c3ccc(C)cc3)CCCC2)c1C [Example 79]	0.32	4.38	–	–	–	–	–	–	–
O=C(NC1(C(=O)c2ccccc2)CCCC1)c1ccccc1 [Example 139]	0.00	> 33	–	–	–	–	–	–	–
CCOC(=O)C(=O)N1CCCC(NC(=O)c2cccc(OC)c2C)(C(=O)c2cc(C)cc(C)c2)C1 (racemic) [Example 154]	–	–	–	–	–	2	–	–	–
COc1cccc(C(=O)NC(C)(C)C(=O)c2cc(C)cc(C)c2)c1C [Example 75]	0.29	42	–	–	–	–	–	–	–
COc1ccccc1C(=O)C(C)(NC(=O)c1cccc(OC)c1C)c1ccc(F)cc1 (stereo not shown) [Example 72]	–	–	–	–	–	1	–	–	–
